Data taken from patent US9198416B2, “Method for enhancing drought tolerance in plants” (Plant Response Biotech S.L., priority 2013, dated 2015).

Tests used:
Assay type in all cases: in vivo
[1] = tested on: tomato 'Moneymaker' seeds; experiment: Tomato seed germination under PEG-6000 simulated drought; conditions: 10 days
Procedure: In order to determine the drought or water stress tolerance after seed treatments with TMAO di-hydrate and germination in the presence of TMAO di-hydrate, tomato ‘Moneymaker’ seeds were surface sterilized for 3 minutes in ethanol 70%, then rinsed twice and finally included in a pre-treatment solution of 0.1 g/L TMAO di-hydrate solution (or just water) under shaking for 3 hours. Then, they were rinsed and included in the germination plates under sterile conditions. Polyethylene glycol (PEG-6000) was added to the germination medium (Murashige and Skoog salts medium) at 152 and 182 g/L. The increasing amount of PEG reduces ψ (hydric potential) values, simulating drought conditions for germination. Each germination plate had at least 30 seeds, and each treatment/pretreatment plate was replicated five times (150 seeds per treatment/pretreatment). Seeds were left to germinate for 10 days under dark conditions in a culture chamber (21° C. light and 20° C. night, 65% humidity). Then, germinated seeds were recorded by visual inspection and data analysis was performed using Statgraphics software.
TMAO di-hydrate applied exogenously increases germination both in pre-treatment of the seeds and as an additive to the medium. Tomato ‘Moneymaker’ seeds were sown, grown and treated as described above.

[2] = tested on: 'Sabrina', 'Candonga' and 'Fortuna' variety strawberry plants; experiment: Strawberry fruit production under normal conditions (trade-off test); conditions: no water stress; for Strawberry fruit production % Control: 1 g/L spray every 4 weeks for 3 months
Procedure: In order to determine the plant fruit productivity under normal conditions, ‘Sabrina’, ‘Candonga’ and ‘Fortuna’ variety strawberry plants were grown under standard strawberry production conditions and 120 plants of each variety per treatment (where the treatment was a Control comprising standard watering or 1 g/L of TMAO spray every four weeks) were analyzed. Plants were located in four (4) different positions for each group of 30 plants from the same treatment. Fruits were harvested from individual plants and total weight was determined for each plant.
Fruit yield was determined in ‘Sabrina’, ‘Candonga’ and ‘Fortuna’ strawberry plants treated with 1 g/l of TMAO di-hydrate or water as described above in order to evaluate the trade-off costs of the treatment with no water stress.

[3] = TMAO content in pepper leaves by NMR after TMAO spray; conditions: 1 g/l spray
Procedure: (§1) For each wilting or limited water experiment 480 seeds (of either pepper, barley, tomato, cucumber or corn) were sown, producing 384 plants in 512 cm^3 pots (4 plants per pot). Plants were grown under chamber conditions at 21° C. for 3 weeks. Then, the plants were moved to a greenhouse, where average temperature was 25° C. to 28° C. Treatments as described herein were done when the plants had two extended leaves and the next pair of leaves were coming up.
(§2) TMAO content in plants was determined by harvesting three leaves per treatment and freezing them in liquid nitrogen before the NMR determination. At least three independent plants were treated per experiment.
(§3) TMAO accumulates in pepper and barley when applied exogenously. ‘Murano’ pepper seeds and ‘Bomi’ barley seeds were sown and grown as described above. Control plants (six weeks old) were sprayed with water and pepper treated plants were sprayed with 1 g/l of TMAO while barley plants were sprayed with 1 g/l of TMAO formulated with 0.1% of C8-C10 Alkylpolysaccharide. Leaves were harvested and TMAO was determined by NMR. The percentage of TMAO increase compared to untreated controls was determined for each time point. TMAO levels increase in pepper and barley with exogenous treatment of TMAO at 1 g/l to higher levels than drought treatment and furthermore, the TMAO levels are high up to 40 days post spray in pepper.

'Rio Grande' tomato = experiment: Tomato fruit production under limited water irrigation; conditions: 30% water irrigation, 1 g/L TMAO spray every 4 weeks
Procedure: as §1
(§4) After the treatments described above, the plants were not watered until the pots completely lost their moisture, taking about 4 to 8 days depending on the season, at which point the plants were extremely wilted for the extreme drought experiments. The plants were then watered once with solutions containing the different amounts of TMAO di-hydrate described above (0.1 g/L, 1.0 g/L or 5.5 g/L) or just water, after which the plants were left to lose their moisture completely again for three consecutive cycles of watering after wilting. […] The plant survival rate was recorded and analyzed for the “extreme drought” experiments in which plants were allowed to wilt severely before watering, while the stem length was recorded as analyzed for the limited water experiments in which the plants are watered with 30% of the water that the plant requires. […]

'TAO700' corn [4] = experiment: Corn total chlorophyll content under limited water irrigation; conditions: 30% water
Procedure: as §1, §4

'Murano' pepper = experiment: Pepper plant survival under extreme drought; conditions: 10 g/L and 1 g/L sprayed, irrigation with water (as worded)
Procedure: as §1
Twelve (12) pots (containing 48 plants) were irrigated with 40 ml of either: water, 0.1 g/L TMAO di-hydrate solution, 1.0 g/L TMAO di-hydrate solution, or 5.5 g/L TMAO di-hydrate solution. […] All pots were also watered with 40 ml of water. […]
(§5) After the treatments described above, the plants were not watered until the pots completely lost their moisture, taking about 4 to 8 days depending on the season, at which point the plants were extremely wilted for the extreme drought experiments. […] The plant survival rate was recorded and analyzed for the “extreme drought” experiments in which plants were allowed to wilt severely before watering, while the stem length was recorded as analyzed for the limited water experiments in which the plants are watered with 30% of the water that the plant requires. […]

'Bomi' barley = experiment: Barley dry weight under drought / limited water irrigation; conditions: drought growing conditions
Procedure: as §1
Twelve (12) pots (containing 48 plants) were irrigated with 40 ml of either: water, 0.1 g/L TMAO di-hydrate solution, 1.0 g/L TMAO di-hydrate solution, or 5.5 g/L TMAO di-hydrate solution. Another set of 12 pots containing 48 plants were sprayed with 40 ml of either water (3.3 ml in average per pot), a solution containing 0.1 g/L TMAO di-hydrate solution, 1.0 g/L TMAO di-hydrate, or 5.5 g/L TMAO di-hydrate. All pots were also watered with 40 ml of water. The sprayed plants were watered with the same volume of water as the “irrigated plants) The pots were located on plastic glass to maintain constant moisture and to avoid liquid spillage during watering. Trays containing the pots were located on greenhouse tables. The distribution of the trays on the table and the position on the pots in the tray was changed every week to avoid position effects.
as §5

Moneymaker tomato = experiment: Tomato plant survival under extreme drought; conditions: higher test rates, both treatments (sprayed or watered)
Procedure: as §1
Twelve (12) pots (containing 48 plants) were irrigated with 40 ml of either: water, 0.1 g/L TMAO di-hydrate solution, 1.0 g/L TMAO di-hydrate solution, or 5.5 g/L TMAO di-hydrate solution. […]
as §5

'FAO700' corn = experiment: Corn number of green leaves under limited water irrigation; conditions: 30% water, 1 g/L (Table 11 rows 3 and 4)
Procedure: as §1, §4

'TAO700' corn [5] = experiment: Corn number of grains per cob under limited water irrigation; conditions: 30% water, 1 g/L (Table 13 row 4)
Procedure: as §1, §4

[6] = TMAO content in barley leaves by NMR after TMAO spray; conditions: 1 g/l spray formulated with 0.1% C8-C10 Alkylpolysaccharide, 1 day post spray
Procedure: as §1, §2, §3

## C[N+](C)(C)[O-] [TMAO, Trimethylamine N-oxide]
[1]; PEG 152 g/L (ψ −0.2564), 0.1 g/L in the germination medium
  GERMINATION RATE: 71.09 ± 4.26%
[1]; PEG 152 g/L (ψ −0.2564), seed pre-treatment 0.1 g/L solution 3 hours
  GERMINATION RATE: 70.62 ± 4.62%
[1]; PEG 182 g/L (ψ −0.3676), 0.1 g/L in the germination medium
  GERMINATION RATE: 45.00 ± 3.20%
[1]; PEG 182 g/L (ψ −0.3676), seed pre-treatment 0.1 g/L solution 3 hours
  GERMINATION RATE: 18.53 ± 3.20%
[2]; 1 g/l, three strawberry varieties
  difference in fruit production vs water: no significant difference
[2]; Candonga
  Strawberry fruit production % Control: 102 % Control
[2]; Fortuna
  Strawberry fruit production % Control: 101 % Control
[2]; Sabrina
  Strawberry fruit production % Control: 106 % Control
[2]; Total of the three varieties
  Strawberry fruit production % Control: 105 % Control
[3]; 1 day post spray, vs water-sprayed control
  TMAO accumulation % Control: 529 % Control
[3]; 10 days post spray
  TMAO accumulation % Control: 373 % Control
[3]; 20 days post spray
  TMAO accumulation % Control: 286 % Control
[3]; 30 days post spray
  TMAO accumulation % Control: 135 % Control
[3]; 40 days post spray
  TMAO accumulation % Control: 213 % Control
'Rio Grande' tomato
  AVERAGE WEIGTH (grams/fruit): 76.73 ± 17.67 grams/fruit
'TAO700' corn [4]; 1 g/L TMAO seed treatment
  TOTAL CHLOROPHYL CONTENT: 0.8977 ± 0.195
'TAO700' corn [4]; 1 g/L TMAO spray
  TOTAL CHLOROPHYL CONTENT: 0.7278 ± 0.076
'Murano' pepper
  plant survival: 83.3%
'Bomi' barley; initial treatment 1 g/L sprayed solution, irrigations water
  AVERAGE DRY WEIGHT: 1205.4 ± 60.37 mg
'Bomi' barley; initial treatment 1 g/L watered solution, irrigations water
  AVERAGE DRY WEIGHT: 1371.4 ± 66.13 mg
'Bomi' barley; irrigations 1 g/L solution, initial treatments pooled
  AVERAGE DRY WEIGHT: 1216.1 ± 33.44 mg
Moneymaker tomato
  shoot dry mass compared with untreated plants: clear increase
'FAO700' corn
  increase in green leaf production over untreated plants with 30% irrigation: 47%
'TAO700' corn [5]
  increase in total number of grains per corn cob compared to 100% irrigation: 2%
[6]
  TMAO accumulation % Control: 822 % Control
